In PMC10322960 (European Journal of Drug Metabolism and Pharmacokinetics, 2023):
pIC50: −log10 of the molar value. “Also recorded” adds a separate entry of the source.

What was measured:
human liver microsomes = experiment: Human liver microsome incubation with or without chemical enzyme inhibitors; type: in vitro ADME
MATE2-K [1] = target: T1, MATE2-K (Homo sapiens, UniProt Q86VL8); experiment: MATE2-K uptake inhibition assay; type: in vitro ADME; details: at 40 µM
CYP3A4 = details: ocedurenone at 0.1, 1, or 10 μM, 72 h; inducer criterion 40%
CYP2C9 = CYP2C9 (Homo sapiens, UniProt P11712); experiment: In vitro P450 inhibition, recombinant CYP2C9; type: in vitro ADME
Sequence of CYP2C9 (P11712 whole entry): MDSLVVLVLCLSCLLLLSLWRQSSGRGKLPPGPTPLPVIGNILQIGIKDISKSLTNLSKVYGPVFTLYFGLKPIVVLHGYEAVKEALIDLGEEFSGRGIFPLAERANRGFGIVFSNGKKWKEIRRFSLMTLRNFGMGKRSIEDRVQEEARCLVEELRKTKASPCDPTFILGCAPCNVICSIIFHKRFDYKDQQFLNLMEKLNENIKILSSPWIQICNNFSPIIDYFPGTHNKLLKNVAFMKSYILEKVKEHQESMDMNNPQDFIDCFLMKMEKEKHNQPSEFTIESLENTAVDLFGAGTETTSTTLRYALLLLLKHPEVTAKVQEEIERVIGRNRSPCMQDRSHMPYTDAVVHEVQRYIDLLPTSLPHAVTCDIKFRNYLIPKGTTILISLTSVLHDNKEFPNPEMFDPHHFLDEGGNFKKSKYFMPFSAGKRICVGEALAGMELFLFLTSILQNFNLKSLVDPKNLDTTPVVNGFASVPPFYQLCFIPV

OAT1 = target: T2, OAT1 (Homo sapiens, UniProt Q4U2R8); experiment: OAT1 uptake substrate assay; type: in vitro ADME
T2 sequence (Q4U2R8 1-563): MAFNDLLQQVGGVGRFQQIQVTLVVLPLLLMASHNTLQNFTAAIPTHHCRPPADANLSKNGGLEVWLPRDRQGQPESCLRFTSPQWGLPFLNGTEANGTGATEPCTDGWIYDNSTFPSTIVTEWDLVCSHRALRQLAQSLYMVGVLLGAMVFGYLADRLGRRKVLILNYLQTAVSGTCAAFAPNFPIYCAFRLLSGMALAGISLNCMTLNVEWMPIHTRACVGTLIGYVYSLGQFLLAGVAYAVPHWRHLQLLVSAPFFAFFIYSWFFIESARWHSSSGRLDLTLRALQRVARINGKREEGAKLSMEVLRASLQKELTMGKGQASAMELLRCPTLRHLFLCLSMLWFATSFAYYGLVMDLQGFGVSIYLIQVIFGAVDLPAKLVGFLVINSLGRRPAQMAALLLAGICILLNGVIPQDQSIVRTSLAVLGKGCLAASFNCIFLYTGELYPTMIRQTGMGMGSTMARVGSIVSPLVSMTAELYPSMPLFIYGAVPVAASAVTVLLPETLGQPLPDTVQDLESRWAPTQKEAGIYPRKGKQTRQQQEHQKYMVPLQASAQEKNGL

MATE2-K [2] = target: T1, MATE2-K; experiment: MATE2-K uptake substrate assay; type: in vitro ADME
OATP1B1 = target: T3, OATP1B1 (Homo sapiens, UniProt Q9Y6L6); experiment: OATP1B1 uptake inhibition assay; type: in vitro ADME
T3 sequence (Q9Y6L6 1-691): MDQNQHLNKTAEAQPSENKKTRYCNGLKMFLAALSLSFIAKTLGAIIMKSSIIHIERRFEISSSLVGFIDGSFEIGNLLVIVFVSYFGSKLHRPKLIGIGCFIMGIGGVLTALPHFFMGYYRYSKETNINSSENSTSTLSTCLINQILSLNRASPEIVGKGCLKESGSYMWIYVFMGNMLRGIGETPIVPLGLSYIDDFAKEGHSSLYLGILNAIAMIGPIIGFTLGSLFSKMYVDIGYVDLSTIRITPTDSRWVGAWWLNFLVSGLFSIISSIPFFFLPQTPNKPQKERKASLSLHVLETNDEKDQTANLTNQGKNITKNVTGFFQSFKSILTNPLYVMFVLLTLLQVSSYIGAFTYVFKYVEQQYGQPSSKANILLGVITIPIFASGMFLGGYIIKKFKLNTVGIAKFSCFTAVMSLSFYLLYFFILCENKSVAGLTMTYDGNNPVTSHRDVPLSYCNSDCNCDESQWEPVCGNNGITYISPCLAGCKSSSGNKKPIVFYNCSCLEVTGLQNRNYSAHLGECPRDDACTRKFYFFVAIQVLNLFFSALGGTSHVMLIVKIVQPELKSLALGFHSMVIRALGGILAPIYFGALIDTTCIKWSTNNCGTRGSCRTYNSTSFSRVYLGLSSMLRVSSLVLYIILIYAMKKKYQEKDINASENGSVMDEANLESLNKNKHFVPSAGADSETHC

CYP1A2 = details: ocedurenone at 0.1, 1, or 10 μM, 72 h; inducer criterion 40%
OATP1B3 = target: T4, OATP1B3 (Homo sapiens, UniProt Q9NPD5); experiment: OATP1B3 uptake inhibition assay; type: in vitro ADME; details: at 40 µM
T4 sequence (Q9NPD5 1-702): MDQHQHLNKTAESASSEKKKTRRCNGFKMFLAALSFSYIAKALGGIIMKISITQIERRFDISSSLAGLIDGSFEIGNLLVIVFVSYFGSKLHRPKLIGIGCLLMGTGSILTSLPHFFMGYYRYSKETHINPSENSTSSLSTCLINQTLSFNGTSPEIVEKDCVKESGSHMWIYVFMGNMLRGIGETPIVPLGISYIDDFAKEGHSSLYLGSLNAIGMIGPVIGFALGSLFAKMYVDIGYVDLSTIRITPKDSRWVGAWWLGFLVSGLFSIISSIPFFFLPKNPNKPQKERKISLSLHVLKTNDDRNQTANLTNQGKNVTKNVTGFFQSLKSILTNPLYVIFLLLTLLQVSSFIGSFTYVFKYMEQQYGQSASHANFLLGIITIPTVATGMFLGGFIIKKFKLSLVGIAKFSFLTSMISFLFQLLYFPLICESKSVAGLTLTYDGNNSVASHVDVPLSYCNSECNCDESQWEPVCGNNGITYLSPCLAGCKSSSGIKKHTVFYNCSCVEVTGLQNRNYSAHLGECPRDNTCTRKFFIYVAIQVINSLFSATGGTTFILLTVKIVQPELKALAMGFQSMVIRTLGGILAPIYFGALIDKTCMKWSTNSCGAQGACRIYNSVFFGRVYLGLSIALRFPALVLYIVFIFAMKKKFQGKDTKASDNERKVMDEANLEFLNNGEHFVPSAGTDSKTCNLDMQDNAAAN

CYP2C19 = CYP2C19 (Homo sapiens, UniProt P33261); experiment: In vitro P450 inhibition, recombinant CYP2C19; type: in vitro ADME
Sequence of CYP2C19 (P33261 whole entry): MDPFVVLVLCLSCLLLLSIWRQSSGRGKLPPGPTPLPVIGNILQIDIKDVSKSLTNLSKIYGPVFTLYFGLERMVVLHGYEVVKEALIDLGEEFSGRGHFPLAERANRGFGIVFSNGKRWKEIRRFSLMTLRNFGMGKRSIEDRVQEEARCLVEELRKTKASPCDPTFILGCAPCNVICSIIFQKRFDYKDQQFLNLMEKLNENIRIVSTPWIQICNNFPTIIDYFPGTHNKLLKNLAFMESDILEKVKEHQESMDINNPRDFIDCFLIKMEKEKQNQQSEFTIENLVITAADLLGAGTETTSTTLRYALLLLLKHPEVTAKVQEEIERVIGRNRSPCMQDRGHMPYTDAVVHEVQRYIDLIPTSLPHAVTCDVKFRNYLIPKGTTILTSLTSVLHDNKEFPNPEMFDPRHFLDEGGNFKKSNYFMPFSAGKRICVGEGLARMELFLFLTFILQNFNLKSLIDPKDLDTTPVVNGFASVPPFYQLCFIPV

[3] = Phase 1 clinical drug–drug interaction study, safety assessment; type: in vivo, human
[4] = transporter-expressing vs control cells, 0.04–40 µm
[5] = Cohort 2, 12 subjects, mild in severity
[6] = rifampin cohort, 12 participants

T1 sequence (Q86VL8 1-566 isoform Q86VL8-3): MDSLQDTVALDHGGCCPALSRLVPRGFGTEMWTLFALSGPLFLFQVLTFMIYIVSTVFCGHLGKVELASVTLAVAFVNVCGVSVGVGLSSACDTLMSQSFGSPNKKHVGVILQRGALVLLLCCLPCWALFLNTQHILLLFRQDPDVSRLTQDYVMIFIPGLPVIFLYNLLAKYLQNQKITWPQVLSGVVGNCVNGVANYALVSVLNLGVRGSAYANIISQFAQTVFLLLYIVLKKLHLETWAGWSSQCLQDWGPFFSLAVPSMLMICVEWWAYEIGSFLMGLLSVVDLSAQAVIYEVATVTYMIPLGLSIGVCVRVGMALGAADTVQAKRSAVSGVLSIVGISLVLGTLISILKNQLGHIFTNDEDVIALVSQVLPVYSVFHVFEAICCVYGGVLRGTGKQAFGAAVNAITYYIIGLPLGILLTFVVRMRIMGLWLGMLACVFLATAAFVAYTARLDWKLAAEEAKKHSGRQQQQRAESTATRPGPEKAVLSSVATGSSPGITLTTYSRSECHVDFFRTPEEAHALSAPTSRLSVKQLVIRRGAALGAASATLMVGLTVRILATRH

Structure (SMILES): N#Cc1ccc(N2N=C3c4ccc(C(=O)N5CCC(O)CC5)nc4CC[C@@H]3[C@@H]2C2CCCC2)cc1Cl [Ocedurenone, ocedurenone]
- stability in human hepatic microsomes (human liver microsomes): stable
- ocedurenone metabolism in HLM with chemical inhibitor added (human liver microsomes; 1-aminobenzotriazole or ketoconazole added separately, 3 µm ocedurenone): inhibited
- maximum inhibition of MATE2-K-mediated probe substrate accumulation (MATE2-K [1]): 79%
- percent CYP3A4 induction (of positive control) (CYP3A4): lower than 40%
- percent remaining activity of CYP2C9 (CYP2C9; ocedurenone at 200 μM): 70.2%
- pIC50 (CYP2C9; read-out: IC50 CYP2C9, recombinant CYP): < 3.70
- inhibition category CYP2C9 (CYP2C9; recombinant enzyme): little or no inhibition
- Substrate, OAT1 UPT (OAT1): not likely to be a substrate
- Maximum fold accumulation, OAT1 UPT (OAT1; [4]): 1.1
- Substrate, MATE2-K UPT (MATE2-K [2]): not likely to be a substrate
- Maximum fold accumulation, MATE2-K UPT (MATE2-K [2]; [4]): < 2
- maximum inhibition of OATP1B1-mediated probe substrate accumulation (OATP1B1; at 40 µM): 72%
- pIC50 (OATP1B1; read-out: Inhibition results (IC50), OATP1B1 UPT, uptake assay): 4.66
- percent CYP1A2 induction (of positive control) (CYP1A2): lower than 40%
- maximum inhibition of OATP1B3-mediated probe substrate accumulation (OATP1B3): 58%
- percent remaining activity of CYP2C19 (CYP2C19; ocedurenone at 200 μM): 78.5%
- pIC50 (CYP2C19; read-out: IC50 CYP2C19, recombinant CYP): < 3.70
- inhibition category CYP2C19 (CYP2C19; recombinant enzyme): little or no inhibition
- treatment-emergent AEs considered related to ocedurenone ([3]; Cohort 1 (itraconazole cohort), 12 subjects): No treatment-emergent AEs; also recorded: no treatment-emergent adverse events
- number of treatment-emergent AEs considered related to the drug [3, 5]: 5
- subjects with treatment-emergent AEs considered related to the drug [3, 5]: 25.0%
- participants with headache (TEAE related to ocedurenone) [3, 6]: 16.7%
- participants with hyperhidrosis (TEAE related to ocedurenone) [3, 6]: 8.3%
- participants with nausea (TEAE related to ocedurenone) [3, 6]: 8.3%
- participants with nervousness (TEAE related to ocedurenone) [3, 6]: 8.3%
- tolerability ([3]; single 0.5-mg dose alone and with itraconazole or rifampin, healthy participants): safe and well-tolerated
